Reference: PMC3556473, “Absorption, metabolism and excretion of [^14C]pomalidomide in humans following oral administration” (Cancer Chemotherapy and Pharmacology, 2012)
Several values for one entry are separate records, joined by “and”; a condition that tells them apart may be missing. Equal values may be shown once. Read-outs that look alike come from different tables or passages of the source.

Key:
[1] = Plasma pharmacokinetics of pomalidomide and its enantiomers (chiral LC–MS/MS) after a single oral 2 mg dose of [14C]pomalidomide; format: in vivo, human
From the text: This was an open-label, in-patient, single-dose study in eight non-smoking healthy male adult volunteers conducted in accordance with Good Clinical Practices (GCP) and in compliance with the Declaration of Helsinki. The protocol and consent form were reviewed and approved by the appropriate institutional review board, and all study participants gave written informed consent, before initiation of any study-related procedure. Male subjects were eligible based on standard inclusion/exclusion criteria and were excluded if they had exposure to excess radiation or participated in a study involving radioisotopes within the previous 12 months. Subjects entered the study center on the day prior to dosing and remained at the center for up to 15 days following dosing or until the total radioactivity recovered in excreta was ≥90 % or the radioactivity recovered in excreta per day on three consecutive days was ≤1 % of the administered radioactive dose.
(§1) Each subject was administered a single oral suspension of 2 mg (100 μCi) of [^14C]pomalidomide in seltzer water (75 mL) followed by administration of an additional 140 mL of distilled water. Subjects were fasted for 8 h prior to and 4 h following dose administration. The residual radioactivity in the dosing vials was determined, and for six of the eight subjects (subjects 1–4, 6 and 8), the administered dose (1.93–2.02 mg) was close to the target dose of 2 mg. For subjects 5 and 7, a significant amount of radioactivity remained in the dose vial, resulting in administered doses of 1.59 and 1.51 mg, respectively. Calculations for percent of dose recovered in excreta were based on the actual administered doses.
(§2) Blood was collected into pre-chilled K3EDTA tubes at pre-dose, 0.5, 1, 1.5, 2, 2.5, 3, 4, 6, 8, 10, 12, 24, 48, 72, 120 and 168 h following dose administration. Blood for radioactivity counting was transferred to a clean tube and stored at or below 4 °C until analyzed. Plasma was harvested by centrifugation from the remaining blood. A plasma sample for radioactivity counting was transferred to a fresh tube. Three plasma aliquots were transferred to tubes containing citric acid for metabolite profiling and for determination of pomalidomide enantiomer concentrations in plasma. Urine was collected pre-dose, 0–6, 6-12, 12–24 and every 24 h thereafter up to 216 h (9 days) following dose administration and were stabilized with one volume of pH 1.5 Sorensen’s citrate buffer (25 mM sodium citrate buffer adjusted to pH 1.5). During the 12- to 24-h collection interval for subject 4, approximately 550 mL of urine was inadvertently poured into the wrong collection urinal and the sample was lost. […] Individual fecal samples were collected pre-dose and for up to 9 days following dose administration, and homogenized using approximately three volumes by weight of pH 1.5 Sorensen’s citrate buffer. All urine, fecal homogenates and plasma samples were stored at or below −20 °C until analyzed.
Plasma concentrations of each pomalidomide enantiomer were determined using a chiral LC–MS/MS assay. The pomalidomide enantiomers and ^13C-labeled pomalidomide (internal standard; IS) were extracted from plasma (stabilized with citric acid) using liquid–liquid extraction with methyl tertiary butyl ether. After transfer to a new tube, the solvent was evaporated, and the samples were reconstituted and injected for LC–MS/MS analysis using a Chiral AGP (50 × 3.0 mm, 5 μm; Chrom Tech, Inc., Apple Valley, MN) analytical column. Positive ions were measured in the multiple reaction monitoring (MRM) mode using a Sciex API-4000 tandem mass spectrometer equipped with a Turbo Ion Spray source. For the QC samples, the accuracy ranged from 91.0 to 106.9 %. For study samples, the amount of [^14C]-labeled material was accounted for when calculating the concentration of enantiomers in plasma using an appropriate correction factor. […]

[2] = Pharmacokinetics of total radioactivity in whole blood and plasma after a single oral 2 mg dose of [14C]pomalidomide; format: in vivo, human
Protocol: as §1, §2
(§3) All radioactivity determinations were performed using Tri-Carb model 2900TR liquid scintillation counter (PerkinElmer, Wellesley, MA). For plasma, urine and residual dose vial analysis, duplicate samples were mixed with Ultima Gold XR scintillation cocktail and directly analyzed by liquid scintillation counting. For fecal homogenate and blood samples, duplicate aliquots were weighed, allowed to dry and combusted using a PerkinElmer model 307 sample oxidizer. The resultant [^14C]CO2 was trapped in Carbosorb (PerkinElmer) in combination with Permafluor and assayed by liquid scintillation counting. For all matrices, any sample that was less than two times the background dpm was assigned a value of zero. Using these criteria, the lower limits of quantification in plasma, blood, urine and feces were 0.894 ng [^14C]pomalidomide equivalent/mL (ngEq/mL), 0.939 ngEq/g, 0.871 ngEq/mL and 2.96 ngEq/g, respectively.
Standard pharmacokinetic parameters were estimated from the pomalidomide (as the sum of the enantiomer concentrations at each time point) and enantiomer concentration versus time profiles or the blood and plasma radioactive concentration equivalents versus time profiles using established non-compartmental methods with WinNonlin (Version 5.2, Pharsight Corp., CA). Pre-dose samples that were below the limit of quantification (BLQ) or missing were assigned a numerical value of zero for the calculation of AUC. All post-dose BLQ were treated as missing in the PK analysis.
Total radioactivity in whole blood and plasma was converted to nanogram equivalent (ngEq) concentrations (ngEq/g for whole blood or ngEq/mL for plasma) based on the actual specific activity of the dose.

[3] = Excretion of radioactivity in urine and feces (mass balance); format: in vivo, human
Protocol: as §1, §2, §3
The amount of total radioactivity (ngEq) in urine and feces was determined by multiplying the volume or weight of the samples by the radioactivity concentration. The dose recovered at each time point was determined by total radioactivity in the sample, divided by the total dose administered, multiplied by 100 %. For data BLQ values, a value of zero was assigned for calculations of means.

[4] = design: method as in earlier work; conditions: ref 2 and unpublished data, cited from earlier work
[5] = plasma, as [14C]pomalidomide equivalents, mean ± SD
[6] = whole blood, as [14C]pomalidomide equivalents, mean ± SD
[7] = percentage of dose, over 216 h, listed as [^14C]pomalidomide

Nc1cccc2c1C(=O)N(C1CCC(=O)NC1=O)C2=O (racemic) [Pomalidomide, (RS)-4-amino-2-(2,6-dioxo-piperidin-3-yl)-isoindoline-1,3-dione] gave a Cmax ([1]; human, healthy male subjects, mean ± SD (n = 8)) of 13 ± 3.9 ng/mL, an AUC(0-inf) ([1]; male, human, mean ± SD (n = 8)) of 189 ± 52 ng·h/mL and an AUC(0-t) ([1]; male, human, mean ± SD (n = 8)) of 137 ± 67 ng·h/mL. The half-life ([1]; male, human, po, 2 mg, mean ± SD (n = 8), read-out: t ½ (converted)) was 11.2 h, the Tmax ([1]; male, human, po, 2 mg, median (min–max)) was less than 3.5 h and the “t ½” value ([1]; mean ± SD (n = 8)) was 8.9 ± 3.4 h. The T max ([1]; median (min–max)) was 3.0 (2.0–6.0) h, the “AUC0−t, plasma total radioactivity” value [2, 5] was 189 ± 88 ng·h/mL and the “AUC0−∞, plasma total radioactivity” value [2, 5] was 225 ± 94 ng·h/mL. For the same compound, the “AUC0–24, TRA (total radioactivity)” value ([2]; plasma, geometric mean (%CV)) was 194 (27.6) ngEq*h/mL, the “AUC0−∞, TRA (total radioactivity)” value ([2]; plasma, geometric mean (%CV)) was 245 (37.9) ngEq*h/mL and the “C max, TRA (total radioactivity)” value ([2]; plasma, geometric mean (%CV)) was 14.8 (17.8) ngEq/mL. For the same compound, the “t ½, TRA (total radioactivity)” value ([2]; plasma, geometric mean (%CV)) was 10.3 (23.5) h, the “t ½, plasma total radioactivity” value ([2]; plasma, mean ± SD, listed as [^14C]pomalidomide) was 11.2 ± 2.5 h and the “T max, plasma total radioactivity” value ([2]; plasma, median (min–max), listed as [^14C]pomalidomide) was 3.25 (1.0–4.0) h. The “T max, TRA (total radioactivity)” value ([2]; plasma, median and range) was 2.5 (1.0–4.0) h, the “C max, plasma total radioactivity” value ([2]; plasma, single oral 2 mg, mean ± SD) was 12.1 ± 2.2 ng [^14C]pomalidomide equivalent/mL and the “Radioactivity blood to plasma ratio, AUC0−t” value ([2]; single oral 2 mg) was 0.84. The “Radioactivity blood to plasma ratio, AUC0−∞” value ([2]; single oral 2 mg) was 0.87, the “Radioactivity blood to plasma ratio, C max” value ([2]; single oral 2 mg) was 0.80 and the “AUC0−t, whole blood total radioactivity” value [2, 6] was 225 ± 99 ng·h/mL. For the same compound, the “AUC0−∞, whole blood total radioactivity” value [2, 6] was 260 ± 102 ng·h/mL, the “t ½, whole blood total radioactivity” value ([2]; whole blood, mean ± SD) was 10.2 ± 1.9 h and the “T max, whole blood total radioactivity” value ([2]; whole blood, median (min–max)) was 2.5 (1.0–4.0) h. For the same compound, the “C max, whole blood total radioactivity” value ([2]; whole blood, single oral 2 mg, mean ± SD) was 15.1 ± 2.7 ng [^14C]pomalidomide equivalent/mL, the “mean total recovery of radioactivity (urine + feces)” value ([3]; % of radioactive dose, collection over 216 h (9 days), eight subjects, listed as [^14C]pomalidomide) was 88% and 88.3% and the oral absorption ([3]; inferred from urinary radioactivity and unchanged drug in feces) was greater than 70%. The “radioactivity excreted in feces, mean” value [3, 7] was 15% and 15.5 ± 2.5%, the “radioactivity excreted in urine, mean” value [3, 7] was 73% and 72.8 ± 16.7% and the “radioactivity recovered within the first 48 h after dose administration” value ([3]; urine + feces) was greater than 80%. For the same compound, the “mean C max and AUC accumulation ratios” value ([4]; once-daily administrations, MM patients) was less than 2 and the half-life ([4]; relapsed or refractory MM patients) was 6.5 to 8.0 h.
